This passage reports Kd results from ChEMBL document CHEMBL3991601, “The target landscape of clinical kinase drugs” (Science, 2017).

Active and inactive are the calls of the source. On the calls: in the data inactive means no Kd found up to 30 µM. Some results are limits rather than exact numbers.

The target in test [1] is Ras-related protein Rab-6A (Homo sapiens, UniProt P20340).
Test [2] addresses T1, STE20-related kinase adapter protein alpha (Homo sapiens, UniProt Q7RTN6).
T1 sequence (Q7RTN6 whole entry): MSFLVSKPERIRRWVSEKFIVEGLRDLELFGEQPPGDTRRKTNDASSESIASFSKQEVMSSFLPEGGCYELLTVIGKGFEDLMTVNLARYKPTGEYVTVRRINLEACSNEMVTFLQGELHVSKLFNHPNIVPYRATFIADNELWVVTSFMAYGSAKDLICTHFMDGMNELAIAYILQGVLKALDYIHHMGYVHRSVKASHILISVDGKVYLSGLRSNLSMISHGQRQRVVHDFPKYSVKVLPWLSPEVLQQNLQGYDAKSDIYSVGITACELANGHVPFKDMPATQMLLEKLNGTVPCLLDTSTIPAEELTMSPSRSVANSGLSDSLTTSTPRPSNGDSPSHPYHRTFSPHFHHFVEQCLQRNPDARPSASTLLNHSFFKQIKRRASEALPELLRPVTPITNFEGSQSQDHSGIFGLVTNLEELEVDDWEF

Sequence of Ras-related protein Rab-6A (P20340 whole entry): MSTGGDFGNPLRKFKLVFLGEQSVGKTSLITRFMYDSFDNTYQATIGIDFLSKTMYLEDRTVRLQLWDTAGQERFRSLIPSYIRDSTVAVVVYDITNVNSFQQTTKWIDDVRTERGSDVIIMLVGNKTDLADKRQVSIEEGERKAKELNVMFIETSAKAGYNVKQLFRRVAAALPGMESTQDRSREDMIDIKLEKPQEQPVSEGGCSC

As usually defined, the Kd is the concentration at which binding is half-saturated. Consider `C[C@@]1(C(=O)Nc2ccc(F)nc2)CCCN1c1nc(Nc2cc(C3CC3)n[nH]2)c2cccn2n1` [BMS-754807], for which the Kd in test [1] and in test [2] was > 30 µM (inactive) each time.

As for `COc1cc2c(Oc3ccc4[nH]c(C)cc4c3F)ncnc2cc1OCCCN1CCCC1` [CEDIRANIB], the Kd in test [1] and in test [2] was > 30 µM (inactive) in each case.

With `Cn1cnc2c(F)c(Nc3ccc(Br)cc3Cl)c(C(=O)NOCCO)cc21` [SELUMETINIB], the Kd in test [1] and in test [2] was > 30 µM (inactive) throughout.

In the case of `COc1cc2c(N3CCN(C(=O)Nc4ccc(OC(C)C)cc4)CC3)ncnc2cc1OCCCN1CCCCC1` [TANDUTINIB], the Kd in test [1] and in test [2] was > 30 µM (inactive) each time.

For the compound `CC1(C)CNc2cc(NC(=O)c3cccnc3NCc3ccncc3)ccc21` [MOTESANIB], the Kd in test [1] and in test [2] was > 30 µM (inactive) throughout.

In the case of `CN(C)C/C=C/C(=O)Nc1cc2c(Nc3ccc(F)c(Cl)c3)ncnc2cc1O[C@H]1CCOC1` [AFATINIB], the Kd in test [1] and in test [2] was > 30 µM (inactive) in each case.
